The term EC50 denotes the concentration at which the effect is half-maximal. In general, IC50 refers to the point on the concentration scale where inhibition reaches its midpoint.

These results are taken from patent US11267825B2 (AICURIS GMBH & CO. KG, priority 2017, dated 2022).

For assay [1], the system named is HBV. The assay can be described thus: Determination of HBV DNA from the supernatants of HepAD38 cells (anti-HBV activity). The assay is classed as cell-based, hepatitis B virus. The following applies: Hepatitis B virus, 144 h; HBV DNA in HepAD38 supernatant at day 6; read-out: Cell Activity (EC50). An outline of the steps:
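HepAD38 cells (60,000/well) were treated with half-log compound dilutions in tetracycline-free medium to induce HBV production. On day 6, HBV DNA was purified from filtered supernatant and quantified by real-time PCR against plasmid standards. EC50 values came from non-linear regression of relative copy numbers, typically from three experiments in triplicate.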

In assay [2] the target is HBV core protein (UniProt P03146). The assay is classed as biochemical. The following applies: read-out: Assembly Activity (IC50); BODIPY-FL labelled core protein, assembly started with NaCl, read after 6 min. The method in brief: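 Fluorescence-quenching assembly assay using E. coli-expressed core protein 1–149 plus Cys150, labelled with BODIPY-FL maleimide, at 1.0–2.0 μM in 50 mM HEPES pH 7.5, 0.5% DMSO. Assembly started with NaCl to […]; fluorescence (ex 477/em 525 nm) read after 6 min. EC50 by non-linear regression, 8-point 0.5-log dilutions.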
Sequence of HBV core protein (P03146 whole entry, looked up): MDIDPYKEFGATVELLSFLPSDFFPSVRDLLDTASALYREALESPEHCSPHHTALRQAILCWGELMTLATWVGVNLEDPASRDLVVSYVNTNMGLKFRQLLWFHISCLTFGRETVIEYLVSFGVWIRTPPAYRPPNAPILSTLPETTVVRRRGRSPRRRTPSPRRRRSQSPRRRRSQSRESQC

On to `O=C(c1cc2ccccc2[nH]1)N1CCc2ncsc2C1` [Example 200, 2-{4H,5H,6H,7H-[1,3]thiazolo[5,4-c]pyridine-5-carbonyl}-1H-indole], for which, in assay [1], the EC50 fell in the range of 1 to 10 µM. For the same compound, the half-maximal inhibitory concentration (IC50) in assay [2] was less than 5 µM.

In the case of `CCc1ccc(F)c2[nH]c(C(=O)N3CCc4nc(N)sc4C3)cc12` [Example 8, 5-(4-ethyl-7-fluoro-1H-indole-2-carbonyl)-4H,5H,6H,7H-[1,3]thiazolo[5,4-c]pyridin-2-amine], the 50% effective concentration (EC50) in assay [1] is less than 1 µM. In addition, in assay [2], the IC50 is less than 5 µM.

As to `O=C(c1cc2c(Cl)cccc2[nH]1)N1CCc2nc(NCC3CCOC3)sc2C1` (stereo not shown) [Example 121, 5-(4-chloro-1H-indole-2-carbonyl)-N-[(oxolan-3-yl)methyl]-4H,5H,6H,7H-[1,3]thiazolo[5,4-c]pyridin-2-amine], in assay [1], the concentration giving a half-maximal response (EC50) was less than 1 µM. In assay [2], the IC50 is less than 5 µM.

In the case of `Cc1cccc2[nH]c(C(=O)N3CCc4nc(NCC5(O)CCC5)sc4C3)cc12` [Example 370, 1-({[5-(4-methyl-1H-indole-2-carbonyl)-4H,5H,6H,7H-[1,3]thiazolo[5,4-c]pyridin-2-yl]amino}methyl)cyclobutan-1-ol], the concentration for a half-maximal effect (EC50) in assay [1] is less than 1 µM. Moreover, the half-maximal inhibitory concentration (IC50) in assay [2] was less than 5 µM.

In the case of `O=C(c1cc2ccccc2[nH]1)N1CCc2nc(O)sc2C1` [Example 141, 5-(1H-indole-2-carbonyl)-4H,5H,6H,7H-[1,3]thiazolo[5,4-c]pyridin-2-ol], the EC50 in assay [1] was 1 to 10 µM. The IC50 in assay [2] was less than 100 µM.

Consider `CC(F)(F)c1cc(F)cc2[nH]c(C(=O)N3CCc4nc(NC(=O)C5CCOCC5)sc4C3)cc12` [Example 401, N-{5-[4-(1,1-difluoroethyl)-6-fluoro-1H-indole-2-carbonyl]-4H,5H,6H,7H-[1,3]thiazolo[5,4-c]pyridin-2-yl}oxane-4-carboxamide], for which the half-maximal effective concentration (EC50) in assay [1] was less than 1 µM. Further, in assay [2], the IC50 is less than 5 µM.

Consider `Nc1nc2c(s1)CN(C(=O)c1cc3c(Br)ccc(O)c3[nH]1)CC2` [Example 93, 2-{2-amino-4H,5H,6H,7H-[1,3]thiazolo[5,4-c]pyridine-5-carbonyl}-4-bromo-1H-indol-7-ol], for which, in assay [1], the EC50 is less than 100 µM. Besides, the IC50 in assay [2] was less than 100 µM.

As for `CN(CC1CCOC1)c1nc2c(s1)CN(C(=O)c1cc3ccccc3[nH]1)CC2` (stereo not shown) [Example 110, 5-(1H-indole-2-carbonyl)-N-methyl-N-[(oxolan-3-yl)methyl]-4H,5H,6H,7H-[1,3]thiazolo[5,4-c]pyridin-2-amine], the half-maximal effective concentration (EC50) in assay [1] lay in the range of 1 to 10 µM. For the same compound, in assay [2], the IC50 is less than 100 µM.

As for `N#Cc1cccc2[nH]c(C(=O)N3CCc4nc(N)sc4C3)cc12` [Example 83, 5-(4-cyano-1H-indole-2-carbonyl)-4H,5H,6H,7H-[1,3]thiazolo[5,4-c]pyridin-2-amine], the half-maximal effective concentration (EC50) in assay [1] was 1 to 10 µM. The IC50 in assay [2] was less than 5 µM.

As for `O=C(c1cc2cc(F)c(Cl)cc2[nH]1)N1CCc2nc(NCC3CCOC3)sc2C1` (stereo not shown) [Example 239, 5-(6-chloro-5-fluoro-1H-indole-2-carbonyl)-N-[(oxolan-3-yl)methyl]-4H,5H,6H,7H-[1,3]thiazolo[5,4-c]pyridin-2-amine], the EC50 in assay [1] was less than 1 µM. Moreover, the IC50 in assay [2] was less than 5 µM.

Turning to `O=C(c1cc2c(Cl)cc(F)cc2[nH]1)N1CCc2nc(NCC3(CO)CC3)sc2C1` [Example 60, [1-({[5-(4-chloro-6-fluoro-1H-indole-2-carbonyl)-4H,5H,6H,7H-[1,3]thiazolo[5,4-c]pyridin-2-yl]amino}methyl)cyclopropyl]methanol], the concentration giving a half-maximal response (EC50) in assay [1] was less than 1 µM. For the same compound, the IC50 in assay [2] was less than 5 µM.

For `Nc1nc2c(s1)CN(C(=O)c1cc3ccc(F)cc3[nH]1)CC2` [Example 197, 5-(6-fluoro-1H-indole-2-carbonyl)-4H,5H,6H,7H-[1,3]thiazolo[5,4-c]pyridin-2-amine], the 50% effective concentration (EC50) in assay [1] is less than 1 µM. Further, in assay [2], the 50% inhibitory concentration (IC50) was less than 5 µM.

Consider `Cc1cc(Cl)cc2cc(C(=O)N3CCc4nc(N)sc4C3)[nH]c12` [Example 139, 5-(5-chloro-7-methyl-1H-indole-2-carbonyl)-4H,5H,6H,7H-[1,3]thiazolo[5,4-c]pyridin-2-amine], for which the half-maximal effective concentration (EC50) in assay [1] is less than 100 µM. Moreover, in assay [2], the concentration for half-maximal inhibition (IC50) was less than 100 µM.

As for `O=C(c1cc2ccccc2[nH]1)N1CCc2nc(NCC3(O)CCOC3)sc2C1` (stereo not shown) [Example 253, 3-({[5-(1H-indole-2-carbonyl)-4H,5H,6H,7H-[1,3]thiazolo[5,4-c]pyridin-2-yl]amino}methyl)oxolan-3-ol], the half-maximal effective concentration (EC50) in assay [1] was less than 1 µM. Besides, the IC50 in assay [2] is less than 5 µM.

As for `Cc1cccc2[nH]c(C(=O)N3CCc4nc(NCC5CCOC5)sc4C3)cc12` (stereo not shown) [Example 124, 5-(4-methyl-1H-indole-2-carbonyl)-N-[(oxolan-3-yl)methyl]-4H,5H,6H,7H-[1,3]thiazolo[5,4-c]pyridin-2-amine], the EC50 in assay [1] is less than 1 µM. In assay [2], the half-inhibitory concentration (IC50) was less than 5 µM.

Consider `N#Cc1ccc(F)c2[nH]c(C(=O)N3CCc4nc(NCC5CCOC5)sc4C3)cc12` (stereo not shown) [Example 117, 7-fluoro-2-(2-{[(oxolan-3-yl)methyl]amino}-4H,5H,6H,7H-[1,3]thiazolo[5,4-c]pyridine-5-carbonyl)-1H-indole-4-carbonitrile], for which the concentration for a half-maximal effect (EC50) in assay [1] was 1 to 10 µM. Moreover, the IC50 in assay [2] is less than 100 µM.

Regarding `CC(O)CNc1nc2c(s1)CN(C(=O)c1cc3c(F)ccc(F)c3[nH]1)CC2` (stereo not shown) [Example 144, 1-{[5-(4,7-difluoro-1H-indole-2-carbonyl)-4H,5H,6H,7H-[1,3]thiazolo[5,4-c]pyridin-2-yl]amino}propan-2-ol], the concentration giving a half-maximal response (EC50) in assay [1] was less than 1 µM. Moreover, the IC50 in assay [2] is less than 5 µM.

As for `Nc1nc2c(s1)CN(C(=O)c1cc3c(F)cc(Br)cc3[nH]1)CC2` [Example 143, 5-(6-bromo-4-fluoro-1H-indole-2-carbonyl)-4H,5H,6H,7H-[1,3]thiazolo[5,4-c]pyridin-2-amine], the EC50 in assay [1] was less than 1 µM. Also, the concentration for half-maximal inhibition (IC50) in assay [2] was less than 5 µM.

Turning to `O=C(Nc1nc2c(s1)CN(C(=O)c1cc3ccccc3[nH]1)CC2)C1CCOCC1` [Example 2, N-[5-(1H-indole-2-carbonyl)-4H,5H,6H,7H-[1,3]thiazolo[5,4-c]pyridin-2-yl]oxane-4-carboxamide], the EC50 in assay [1] is less than 1 µM. In addition, in assay [2], the 50% inhibitory concentration (IC50) was less than 5 µM.

As for `Cc1cc(F)cc2[nH]c(C(=O)N3CCc4nc(NCC5(O)CCC5)sc4C3)cc12` [Example 312, 1-({[5-(6-fluoro-4-methyl-1H-indole-2-carbonyl)-4H,5H,6H,7H-[1,3]thiazolo[5,4-c]pyridin-2-yl]amino}methyl)cyclobutan-1-ol], in assay [1], the concentration giving a half-maximal response (EC50) is less than 1 µM. In addition, the IC50 in assay [2] was less than 5 µM.

In the case of `O=C(CC1CCOCC1)Nc1nc2c(s1)CN(C(=O)c1cc3ccccc3[nH]1)CC2` [Example 20, N-[5-(1H-indole-2-carbonyl)-4H,5H,6H,7H-[1,3]thiazolo[5,4-c]pyridin-2-yl]-2-(oxan-4-yl)acetamide], the EC50 in assay [1] was less than 1 µM. For the same compound, the IC50 in assay [2] was less than 5 µM.

Consider `O=C(c1cc2ccccc2[nH]1)N1CCc2nc(NCC(F)(F)F)sc2C1` [Example 118, 5-(1H-indole-2-carbonyl)-N-(2,2,2-trifluoroethyl)-4H,5H,6H,7H-[1,3]thiazolo[5,4-c]pyridin-2-amine], for which, in assay [1], the half-maximal effective concentration (EC50) is less than 1 µM. In assay [2], the IC50 was less than 100 µM.

On to `O=C(c1cc2ccccc2[nH]1)N1CCc2nc(NCC3(CO)CC3)sc2C1` [Example 87, [1-({[5-(1H-indole-2-carbonyl)-4H,5H,6H,7H-[1,3]thiazolo[5,4-c]pyridin-2-yl]amino}methyl)cyclopropyl]methanol], for which, in assay [1], the EC50 is less than 1 µM. Moreover, the IC50 in assay [2] is less than 5 µM.
